Columns and labels:
Type in all cases: cell-based
NCI-H446 = test: CellTiter-Glo cell viability, NCI-H446
Description: (§1) The 50% inhibitory concentration (IC50) was determined in the cancer cell lines using CellTiter-Glo luminescent cell viability assay after incubation with different concentrations of active agents. Each cell line was treated with active Zn(II) agent, a standard chemotherapy drug as reference control, and culture medium as vehicle control. Cell Lines. All cell lines were cultured in media supplemented with 10-15% FBS, at a temperature of 37° C., 5% CO2, and 95% humidity. The reference control drug for all cell lines was cisplatin, to be used for genomic analysis. The cell lines tested, the tissue of origin are shown below in Table 1: Procedure for Determining Half Maximal Inhibition Concentration IC50 • 1. Harvested cells during the logarithmic growth period and count cell number using Count-star. • 2. Adjusted cell concentrations to 4.44×10^4 cells/mL with respective culture medium. • 3. Added 90 μL cell suspensions to two 96-well plates (plates A and B) with the final cell density of 4×10^3 cells/well. (cell concentration was adjusted according to the data base or density optimization assay.) • 4a. Next day: For the plates of TO reading: • 1) Added 10 μL culture medium to each well of plate A for TO reading. • 2) Equilibrated the plate and its content at RT for approximately 30 min. • 3) Added 50 μL CellTiter-Glo reagent to each well. • 4) Mixed content for 5 min on an orbital shaker to induce cell lysis. • 5) Allowed the plate to incubate at RT for 20 min to stabilize luminescent signal. • 6) Recorded luminescence (TO) using EnVision Multi Label Reader. • 4b. For the plates of test reading: • 1) Prepared 10× solution of Zn(II) agent test article. […] The formula for calculating surviving rate is shown below and the absolute IC50 (EC50) was calculated according to the dose-response curve generated by GraphPad Prism 5.0. • 12) The surviving rate (%)=(LumTest article−LumMedium control)/(LumNon-treated−LumMedium control)×100%.

Jurkat clone E6-1 = test: CellTiter-Glo cell viability, Jurkat clone E6-1
Description: as §1

Calu-3 = test: CellTiter-Glo cell viability, Calu-3
Description: as §1

NCI-H929 = test: CellTiter-Glo cell viability, NCI-H929
Description: as §1

U-937 = test: CellTiter-Glo cell viability, U-937
Description: as §1

OCI-AML2 = test: CellTiter-Glo cell viability, OCI-AML2
Description: as §1

JJN-3 = test: CellTiter-Glo cell viability, JJN-3
Description: as §1

MOLM-13 = test: CellTiter-Glo cell viability, MOLM-13
Description: as §1

Hep3B = test: CellTiter-Glo cell viability, Hep3B
Description: as §1

[1] = 96 h, top conc. 50 μg/mL Zn(II) agent, 100 μM cisplatin

In the case of `N.N.[Cl][Pt][Cl]` [Cisplatin], the “Absolute IC50” value (NCI-H446; 96 h, CellTiter-Glo) is reported as 0.35 µg/mL, the “% inhibition at top conc.” value (NCI-H446; [1]) is reported as 99.99% and the HillSlope (NCI-H446; 96 h dose-response fit) is reported as −0.65. For the same molecule, the “Absolute IC50” value (Jurkat clone E6-1; 96 h, CellTiter-Glo) was 0.17 µg/mL, the “% inhibition at top conc.” value (Jurkat clone E6-1; [1]) was 99.99% and the HillSlope (Jurkat clone E6-1; 96 h dose-response fit) was −2.37. For the same molecule, the “Absolute IC50” value (Calu-3; 96 h, CellTiter-Glo) was 0.30 µg/mL, the “% inhibition at top conc.” value (Calu-3; [1]) was 82.29% and the HillSlope (Calu-3; 96 h dose-response fit) was −1.15. The “Absolute IC50” value (NCI-H929; 96 h, CellTiter-Glo) was 0.64 µg/mL, the “% inhibition at top conc.” value (NCI-H929; [1]) was 99.98% and the HillSlope (NCI-H929; 96 h dose-response fit) was −1.83. For the same molecule, the “Absolute IC50” value (U-937; 96 h, CellTiter-Glo) was 0.37 µg/mL, the “% inhibition at top conc.” value (U-937; [1]) was 99.99% and the HillSlope (U-937; 96 h dose-response fit) was −4.57. The “Absolute IC50” value (OCI-AML2; 96 h, CellTiter-Glo) was 0.33 µg/mL, the “% inhibition at top conc.” value (OCI-AML2; [1]) was 99.96% and the HillSlope (OCI-AML2; 96 h dose-response fit) was −2.66. The “Absolute IC50” value (JJN-3; 96 h, CellTiter-Glo) was 0.28 µg/mL, the “% inhibition at top conc.” value (JJN-3; [1]) was 99.81% and the HillSlope (JJN-3; 96 h dose-response fit) was −1.17. For the same molecule, the “Absolute IC50” value (MOLM-13; 96 h, CellTiter-Glo) was 0.16 µg/mL, the “% inhibition at top conc.” value (MOLM-13; [1]) was 99.98% and the HillSlope (MOLM-13; 96 h dose-response fit) was −2.08. For the same molecule, the “Absolute IC50” value (Hep3B; 96 h, CellTiter-Glo) was 0.78 µg/mL, the “% inhibition at top conc.” value (Hep3B; [1]) was 99.58% and the HillSlope (Hep3B; 96 h dose-response fit) was −1.50.
